The subject of series [1] is human liver cancer cells HepG2. Kind of series: Cell proliferation assay (CCK-8). The class given is cell-based. As to conditions: Homo sapiens, HepG2, 72 h. The text has this:
(§1) CCK-8 method: The CCK-8 method is a highly sensitive, non-radioactive colorimetric assay for the determination of the number of viable cells in cell proliferation or cytotoxicity assays. The orange formazan dye produced by the bioreduction of CCK-8 by intracellular dehydrogenase is soluble in the cell culture medium, and the amount of formazan dye produced is proportional to the number of living cells. The kit used in this method is the tetrazolium salt-WST-8 (2-(2-methoxy-4-nitrophenyl)-3-(4-nitrophenyl)-5-(2,4-disulfophenyl)-2H-tetrazolium monosodium salt) developed by Dojindo Chemical Research Institute (Dojindo), which is capable of being reduced to a water-soluble formazan dye in the presence of the electronic carrier 1-Methoxy PMS.
(§2) Human cervical cancer cells Hela, pancreatic cancer cells PANC-1, esophageal cancer cells Eca-109, human leukemia cells K562, human lung cancer cells A549, human liver cancer cells HepG2, human gastric cancer cells MKN-45, human breast cancer cells MCF7 were cultured in DMEM medium containing 10% FBS (fetal bovine serum), 100 U/mL penicillin and 100 μg/ml streptomycin. Hepatocellular carcinoma cells Bel-7402 were cultured in RPMI-1640 medium containing 10% FBS (fetal bovine serum), 100 U/ml penicillin and 100 μg/ml streptomycin. All cells were placed in a cell culture incubator at 37° C. with 5% CO2. Cells fluid was changed every 3-5 days, and after 80% cell fusion, trypsin digestion and passaging were performed to keep the cells in good logarithmic growth phase.
(§3) All the samples to be tested were dissolved in DMSO.
(§4) Cells in logarithmic growth phase were inoculated in 96-well plates with 5000 cells/well respectively, and after 24 h of incubation, samples were added (final concentrations as shown in the table), and biplicate wells were set up for each sample. The amount of solvent of DMSO was not higher than 2‰. After 72 h, 10 μL of CCK-8 solution was added to each well and incubated for 1.5˜3 h at 37° C. The OD value at 450 nm was measured on an plate reader. Inhibition rate (%)=(1−[(OD450 dosed well−OD450 blank well)/(OD450 control well−OD450 blank well)])×100%
(§5) The fitted IC50 values were calculated using the log (inhibitor) vs. response—Variable slop analysis method in GraphPad Prism software.

Series [2] deals with human leukemia cells K562. Kind of series: Cell proliferation assay (CCK-8). The format is cell-based. As to conditions: Homo sapiens, K562, 72 h.
Excerpt: as §1, §2, §3, §4, §5

Series [3] relates to Human cervical cancer cells Hela. Put plainly: Cell proliferation assay (CCK-8). The class given is cell-based. As to conditions: Homo sapiens, 72 h.
Excerpt: as §1, §2, §3, §4, §5

Series [4] relates to human breast cancer cells MCF7. Put plainly: Cell proliferation assay (CCK-8). The class given is cell-based. As to conditions: Homo sapiens, MCF7, 72 h.
Excerpt: as §1, §2, §3, §4, §5

The test system of series [5] is human lung cancer cells A549. Put plainly: Cell proliferation assay (CCK-8). The format is cell-based. As to conditions: Homo sapiens, A549, 72 h.
Excerpt: as §1, §2, §3, §4, §5

In series [6] the test system is human gastric cancer cells MKN-45. Put plainly: Cell proliferation assay (CCK-8). The format is cell-based. As to conditions: Homo sapiens, MKN-45, 72 h.
Excerpt: as §1, §2, §3, §4, §5

Series [7] deals with pancreatic cancer cells PANC-1. Kind of series: Cell proliferation assay (CCK-8). As to conditions: Homo sapiens, PANC-1, 72 h. The class given is cell-based, human.
Excerpt: as §1, §2, §3, §4, §5

The subject of series [8] is esophageal cancer cells Eca-109. Put plainly: Cell proliferation assay (CCK-8). As to conditions: Homo sapiens, Eca-109, 72 h. The class given is cell-based, human.
Excerpt: as §1, §2, §3, §4, §5

Series [9] is described as follows: Solubility test (shake 37° C., 24 h, HPLC). The format is physicochemical. As to conditions: thermodynamic from solid, x ± s. The method, then:
The term “solubility” refers to the mass of solute dissolved when a solid substance reaches saturation state in 100 g solvent at a certain temperature. Solubility test refer to the following references: ZHU Shang-bin, et al. Preparation, characterization, and physicochemical properties of arbutin phospholipid complex[J]. Chinese Traditional and Herbal Drugs. 2020, 1-10.
Methods: Excess BFA and the compounds disclosed herein were added to 10 mL of three solvents, methanol, acetone and 5% DMSO+95% H2O, respectively, and shaken on a shaker at 37° C. at 100 r/min for 24 h. After 24 h, the samples were centrifuged at 15 000 r/min for 15 min to remove the undissolved compounds. The supernatant was filtered using a 0.45 μm membrane filter. The supernatant was appropriately diluted with methanol and contents of the compounds were determined by HPLC method to calculate the solubility.

Where [10] appears, read: aqueous with cosolvent or surfactant or cyclodextrin, 5% DMSO + 95% H2O, n = 3, read-out: Solubility, 5% DMSO + 95% H2O.
[11] abbreviates: organic solvent or mixture, acetone, n = 3, read-out: Solubility, Acetone.
The mark [12] stands for this setting: organic solvent or mixture, methanol, n = 3, read-out: Solubility, Methanol.

The structures appear in SMILES notation. Converted amounts (≈) assume the structure as drawn. Where two headings read alike, the source gives them in different places.

In the case of `COc1cccc2c1C(=O)c1c(O)c3c(c(O)c1C2=O)C[C@@](O)(C(=O)CO)C[C@@H]3O[C@H]1C[C@H](N)[C@H](O)[C@H](C)O1` [Adriamycin, reference compound], the IC50 is over 10000 nM in series [1]; 1000 to 10000 nM in series [2]; 100 to 1000 nM in series [3]; 1000 to 10000 nM in series [4]; 100 to 1000 nM in [5]; 100 to 1000 nM in [6]. For the same compound, the half-inhibitory concentration (IC50) was under 100 nM in series [7] and 100 to 1000 nM in series [8].

With `C[C@H]1CCC/C=C/[C@@H]2C[C@H](OC(=O)OCc3ccccn3)C[C@H]2[C@H](O)/C=C/C(=O)O1` [Compound 2, BFA-7-(pyridine-2-ylmethyl)carbonate], the concentration for half-maximal inhibition (IC50) in [1] is 100 to 1000 nM; in [2], 100 to 1000 nM; in [3], under 100 nM; in series [4], 100 to 1000 nM; in series [5], 100 to 1000 nM; in [6], 100 to 1000 nM. In addition, the IC50 in series [7] and in series [8] was 100 to 1000 nM in each case. The solubility at 24 h in [9] (setting [10]) was 2.48 ± 1.55 mg/mL; in series [9] (setting [11]), 69.4 ± 2.23 mg/mL (≈ 167 mM); in [9] (setting [12]), 73.3 ± 3.52 mg/mL (≈ 176 mM).

For the compound `C[C@H]1CCC/C=C/[C@@H]2C[C@H](OC(=O)OCc3ccncc3)C[C@H]2[C@H](O)/C=C/C(=O)O1` [Compound 3, BFA-7-(pyridine-4-ylmethyl)carbonate], the 50% inhibitory concentration (IC50) in series [1] is 100 to 1000 nM; in series [2] it was 100 to 1000 nM; in series [3], 100 to 1000 nM; in series [4], under 100 nM; in series [5] it was 100 to 1000 nM; in series [6], under 100 nM. For the same compound, the IC50 in series [7] and in series [8] was 100 to 1000 nM in each case. Also, the results for the solubility at 24 h in [9] (setting [10]), in series [9] (setting [11]) and in series [9] (setting [12]) were 2.65 ± 1.6 mg/mL, 69.6 ± 1.74 mg/mL (≈ 168 mM) and 70.3 ± 4.35 mg/mL (≈ 169 mM), respectively.

`C[C@H]1CCC/C=C/[C@@H]2C[C@H](OC(=O)OCc3cncc(F)c3)C[C@H]2[C@H](O)/C=C/C(=O)O1` [Compound 4, BFA-7-(5-fluoro-pyridine-3-ylmethyl)carbonate]: the IC50 in series [1] was 100 to 1000 nM; in series [2], 100 to 1000 nM; in series [3], under 100 nM; in series [4] it was 100 to 1000 nM; in series [5], 100 to 1000 nM; in [6], 100 to 1000 nM. The results for the IC50 in series [7] and in series [8] were under 100 nM and 100 to 1000 nM, respectively. Further, the solubility at 24 h in series [9] (setting [10]) came to 2.72 ± 0.33 mg/mL; in series [9] (setting [11]) it was 63.8 ± 3.53 mg/mL (≈ 147 mM); in [9] (setting [12]), 69.4 ± 3.51 mg/mL (≈ 160 mM).

With `C[C@H]1CCC/C=C/[C@@H]2C[C@H](OC(=O)OCc3ccc(N)nc3)C[C@H]2[C@H](O)/C=C/C(=O)O1` [Compound 5], the IC50 was 100 to 1000 nM in series [1]; 100 to 1000 nM in series [2]; 100 to 1000 nM in series [3]; 100 to 1000 nM in series [4]; 100 to 1000 nM in [5]; under 100 nM in series [6]. The IC50 in [7] is 100 to 1000 nM; in series [8] it was under 100 nM.

For the compound `Cc1ccc(COC(=O)O[C@@H]2C[C@H]3[C@H](O)/C=C/C(=O)O[C@@H](C)CCC/C=C/[C@@H]3C2)cn1` [Compound 7], the half-inhibitory concentration (IC50) in [1], in series [2], in series [3], in [4], in series [5] and in [6] was 100 to 1000 nM in each case. The half-inhibitory concentration (IC50) in series [7] and in series [8] was 100 to 1000 nM throughout.

One may read the IC50 as the concentration at which inhibition is half-maximal. High values mean weaker potency in that assay, low ones greater potency in that assay. In general, solubility refers to the concentration that dissolves in the medium under given conditions.

The values above are taken from patent US12522590B2, “Brefeldin a derivatives, preparation method and use thereof” (OCEAN UNIVERSITY OF CHINA, priority 2019, dated 2026).
